Measured values: article PMC6467890, “A semi-synthetic neolignan derivative from dihydrodieugenol B selectively affects the bioenergetic system of Leishmania infantum and inhibits cell division” (Scientific Reports, 2019)
Like-named read-outs stand apart in the source and are kept apart here.

Columns and labels:
Leishmania = conditions: cited from earlier work
[1] = system: L. (L.) infantum promastigotes; experiment: ATP levels, bioluminescence assay; format: cell-based, Leishmania (L.) infantum; conditions: 190 µM, 1 and 2 h, compared to untreated parasites
Method: Promastigotes (2 × 10^6 parasites/well) were treated with compound 2 (190 µM) in HBSS + Glu for 1 and 2 h at 24 °C. Untreated parasites and treated with CCCP (25 µM) were included as negative and positive controls, respectively. The promastigotes were lysed using 0.5% Triton X-100 and mixed with a standard reaction buffer (ATP Determination Kit, Molecular Probes) containing DTT (1 mM), luciferin (0.5 mM) and firefly luciferase (1.25 µg/mL)[50]. Luminescence intensity was measured using a luminometer (FilterMax F5 Multi-Mode, Molecular Devices) and the amount of ATP was calculated from an ATP standard curve.

[2] = system: L. (L.) infantum promastigotes; experiment: Ultrastructural analysis by transmission electron microscopy; format: cell-based, Leishmania (L.) infantum; parameters: dose or concentration left out as unconfirmed; conditions: (figure legend), 4 and 6 h
Method: […] Then, the parasites were washed, fixed in 2.5% glutaraldehyde in 0.1 M sodium cacodylate buffer (pH 7.3), postfixed in 1% osmium tetroxide. The parasites were dehydrated with acetone series and embedded in Epon resin. Ultrathin sections were stained with uranyl acetate and lead citrate. The material was analyzed under transmission electron microscopy (JEOL JEM-1011). Untreated parasites were used as negative control.

[3] = system: bone marrow-derived macrophages, uninfected and infected with L. (L.) infantum; experiment: Cytokine level quantification, CBA Mouse Inflammation Kit, flow cytometry; format: cell-based, BALB/c mice; conditions: 48 h
Method: Bone marrow-derived macrophages (5 × 10^5 cells/well) in 24-well plates were infected with amastigotes at a ratio of 10:1 (amastigotes/macrophage) and kept at 37 °C in a 5% CO2 humidified incubator. Cell were treated with compound 2 (60 to 7.5 µM) for 48 h and the supernatant was collected and cytokine quantification was achieved using the CBA Mouse Inflammation Kit (BD Biosciences) according to the manufacturer’s instructions. The fluorescence was measured using BD LSRFortessa flow cytometer (BD Biosciences) and the data analysis was performed using the software FCAP Array (v.3). LPS (50 μg/mL) was used as positive control and untreated parasites were used as negative control.

[4] = system: L. (L.) infantum promastigotes; format: cell-based, Leishmania (L.) infantum
Method: Promastigotes (2 × 10^6 parasites/well) were incubated in 96-well black polystyrene microplates with 1 µM of Sytox Green (Molecular Probes) in HANKS’ balanced salt solution (Sigma-Aldrich) supplemented with 10 mM D-Glucose (Sigma-Aldrich, HBSS + Glu) at 24 °C for 15 min in the dark[45]. Compound 2 (190 µM) was added and the fluorescence was measured every 20 min for up to 2 h, using a fluorimetric microplate reader (FilterMax F5 Multi-Mode, Molecular Devices) with excitation and emission wavelengths of 485 and 520 nm, respectively. Maximum permeabilization was obtained using 0.5% Triton X-100 and untreated parasites were used as negative control.

[5] = system: L. (L.) infantum promastigotes; experiment: Cell cycle analysis, propidium iodide, flow cytometry; format: cell-based, Leishmania (L.) infantum; conditions: 24 h; compound 2 190 µM, miltefosine 25 μM
Method: Promastigotes (2 × 10^6 parasites/well) in mid-log phase were incubated with compound 2 (190 µM) in M-199 medium for 24 h at 24 °C. Parasites were washed and fixed in 70% ice-cold ethanol overnight at −20 °C. After a further wash with PBS 1x, the promastigotes were ressuspended in propidium iodide (10 µg/mL, Molecular Probes) and RNase A (20 µg/mL, Molecular Probes) for 30 min in the dark at room temperature. The fluorescence intensity was analyses using Attune NxT flow cytometer (Thermo Fisher Scientific) with excitation filter wavelengths of 488 nm and emission of 574 nm (BL-2)[47]. Maximum change in the cell cycle was obtained in the presence of miltefosine (25 μM) and untreated parasites were used as negative control. Unstained parasites were used to set background fluorescence.

[6] = system: intracellular amastigotes of L. (L.) infantum; experiment: Intracellular amastigotes in peritoneal macrophages, light microscopy counting (infection index); format: cell-based, Leishmania (L.) infantum; conditions: for IC50: intracellular amastigotes in peritoneal macrophages, 96 h, read-out: IC50 (µM) ± SD Amastigote
Method: Peritoneal macrophages (1 × 10^5 cell/well) in 16-well slide chambers (NUNC) were infected with amastigotes at a ratio of 10:1 (amastigotes/macrophage) and treated with compounds (60 to 10 µM) for 96 h. Stained slides (Giemsa) were counted using light microscopy and IC50 determined by the infection index. Miltefosine was used as standard and untreated cells as a negative control.

[7] = system: Fibroblast NCTC cells clone 929; experiment: Mammalian cytotoxicity, MTT colorimetric method; format: cell-based, murine; conditions: up to 200 μM, read-out: CC50 (µM) ± SD NCTC
Method: (§1) Fibroblast NCTC cells clone 929 (6 × 10^4 cells/well) in 96-well plates were incubated with the compounds up to 200 μM in a 5% CO2 humidified incubator at 37 °C. CC50 was determined by the MTT colorimetric method. The selectivity index was determined using the following equation: CC50 against NCTC cells/IC50 against amastigotes

[8] = system: L. (L.) infantum promastigotes; experiment: Intracellular calcium levels, Fura-2 AM; format: cell-based, Leishmania (L.) infantum; conditions: 190 µM, 5, 20, 60 and 120 min
Method: Promastigotes (2 × 10^6 parasites/well) were pretreated with 5 µM of Fura-2 AM (Molecular Probes) in PBS 1x, for 40 min at 24 °C in the dark. The parasites were washed and treated with compound 2 (190 µM). The fluorescence was measured at 5, 20, 60 and 120 min, using a fluorimetric microplate reader (FilterMax F5 Multi-Mode, Molecular Devices) with excitation and emission wavelengths of 360 and 500 nm, respectively. Maximum levels of calcium were obtained using 0.5% Triton X-100 and untreated parasites were used as negative control.

[9] = system: L. (L.) infantum promastigotes; experiment: Promastigote viability, MTT colorimetric method; format: cell-based, Leishmania (L.) infantum
Method: Promastigotes (1 × 10^6 parasites/well) in 96-well plates were incubated with the four compounds (150 to 1.2 μM) for 96 h at 24 °C. The parasite viability was determined using the MTT colorimetric method. Miltefosine was used as standard, with untreated cells as a negative control. A parallel promastigote activity assay was performed for 2 h with compound 2 (200 to 1.56 μM) for mechanism of action studies. After this period of incubation with compound 2, the parasites were washed twice with M-199 medium and the parasite viability was determined using the MTT colorimetric method for 4 h incubation at 24 °C.

[10] = system: L. (L.) infantum promastigotes; experiment: Plasma membrane electric potential, DiSBAC2(3), flow cytometry; format: cell-based, Leishmania (L.) infantum
Method: Promastigotes (2 × 10^6 parasites/well) were treated with compound 2 (190 µM) for 1 and 2 h in HBSS + Glu at 24 °C. DiSBAC2(3) (Molecular Probes) were added (0.2 µM) and the parasites were incubated by 5 min[47]. The fluorescence was measure using Attune NxT flow cytometer (Thermo Fisher Scientific) with excitation and emission wavelengths of 488 and 574 nm (BL-2), respectively. Raloxifene (60 μM) was used as positive control and untreated parasites were used as negative control. Unstained parasites were used to set background fluorescence.

[11] = system: L. (L.) infantum promastigotes; experiment: Mitochondrial membrane electric potential, JC-1, flow cytometry; format: cell-based, Leishmania (L.) infantum; conditions: 190 µM, 1 and 2 h, compared to untreated parasites
Method: Promastigotes (2 × 10^6 parasites/well) were treated for 1 and 2 h with compound 2 (190 µM) in HBSS + Glu at 24 °C. JC-1 dye (Molecular Probes) was added at a final concentration of 10 μM. The parasites were incubated in the dark for 20 min and washed to eliminate the non-internalized dye. The fluorescence was measure using Attune NxT flow cytometer (Thermo Fisher Scientific) with excitation filter wavelengths of 488 nm and emission of 530 (BL-1) and 574 nm (BL-2). The mitochondrial membrane potential was determined using BL-2/BL-1 ratio[49]. Maximum depolarization was obtained in the presence of CCCP (100 μM) and untreated parasites were used as negative control. Unstained parasites were used to set background fluorescence.

[12] = system: Trypanosoma cruzi parasites; parameters: method as in PMID 28864277; conditions: cited from earlier work
[13] = system: Trypanosoma cruzi parasites; conditions: cited from earlier work
L. (L.) amazonensis = system: L. (L.) amazonensis; parameters: method as in PMID 20064628; conditions: cited from earlier work
[14] = Mammalian cytotoxicity, MTT colorimetric method; format: cell-based, murine; conditions: mouse, NCTC clone 929 fibroblast cells, up to 200 μM, read-out: CC50 (µM) ± SD NCTC
Method: as §1

[15] = 96 h at 24 °C, MTT, read-out: IC50 (µM) ± SD Promastigote

C/C=C/c1cc(OC)c2c(c1)[C@H](C)[C@@H](c1ccc(O)c(OC)c1)O2 [licarin A]
anti-Leishmania effect and NO upregulation (Leishmania): anti-Leishmania effect without NO upregulation

1-Propyl-3-(1′-propyl-3′-methoxyphenoxy)-5-methoxy-4-benzoyloxybenzene [Compound 2]
ATP concentration [1]: dose-dependent decrease of ATP concentration | ultrastructural alterations (TEM) [2]: intense swelling of the mitochondria with severe loss of cristae and matrix and concentric membranous structures inside this organelle | MCP-1 levels ([3]; 60 μM, both macrophage groups): decrease this chemokine in both macrophage groups | TNF production ([3]; infected macrophages at 30 and 15 μM, uninfected at 60 and 30 μM): reduced the TNF production | plasma membrane permeability (Sytox Green fluorescence) [4]: No changes in the fluorescence levels were observed | Proportion of promastigotes in different stages of cell cycle (% ± SD) G0/G1 [5]: 52.3 ± 1.1 % | Proportion of promastigotes in different stages of cell cycle (% ± SD) M/G2 [5]: 26.4 ± 0.1 % | Proportion of promastigotes in different stages of cell cycle (% ± SD) S [5]: 13.7 ± 0.7 % | Proportion of promastigotes in different stages of cell cycle (% ± SD) Sub G0 [5]: 3.0 ± 0.2 % | amastigotes eliminated ([6]; at the highest tested concentration): 100% | IC50 [6]: 6.1 ± 1.2 µM | CC50 [7]: > 200 µM | cytosolic Ca2+ levels (Fura-2 AM) [8]: induced a fast up-regulation of calcium levels, in a time-dependent manner | IC50 [9, 15]: 105 ± 9.4 µM | IC50 ([9]; after 2 h of incubation, used for mechanism of action assays, read-out: second IC50 value against promastigotes): 190 µM | plasma membrane electric potential (ΔΨp), DiSBAC2(3) fluorescence ([10]; 190 µM, 1 and 2 h, compared with untreated parasites): induced a significant (p < 0.0001) depolarization of the potential | mitochondrial membrane electric potential (ΔΨm), JC-1 BL-2/BL-1 ratio [11]: induced a significant (p < 0.0001) depolarization of the mitochondrial membrane potential

C=CCc1ccc(Oc2cc([C@@H](O)C=C)cc(OC)c2OC)c(OC)c1 [1-[(7S)-hydroxy-8-propenyl]-3-[3′-methoxy-1′-(8′-propenyl)-phenoxy]-4,5-methoxybenzene]
depolarization of the mitochondrial membrane [12]: induce depolarization of the mitochondrial membrane | plasma membrane permeabilization [13]: plasma membrane permeabilization was verified

1-Propyl-3-(1′-propyl-3′-methoxyphenoxy)-4,5-dimethoxybenzene [Compound 3]
IC50 [6]: 21.7 ± 1.9 µM | CC50 [7]: 57.7 ± 1.1 µM | IC50 [9, 15]: 29.6 ± 2.3 µM

O=C(c1ccc(OCCN2CCCCC2)cc1)c1c(-c2ccc(O)cc2)sc2cc(O)ccc12 [Raloxifene, reference compound]
plasma membrane electric potential (ΔΨp), DiSBAC2(3) fluorescence ([10]; positive control, 60 μM): caused increased levels of fluorescence

C=CCc1ccc(Oc2cc(CC=C)cc(OC)c2O)c(OC)c1 [dehydrodieugenol B]
plasma membrane permeabilization [13]: plasma membrane permeabilization was verified

eupomatenoid-5
depolarization of the mitochondrial membrane (L. (L.) amazonensis): induce depolarization of the mitochondrial membrane

CCCCCCCCCCCCCCCCOP(=O)([O-])OCC[N+](C)(C)C [Miltefosine, reference compound]
Proportion of promastigotes in different stages of cell cycle (% ± SD) G0/G1 [5]: 36.4 ± 1.3 % | Proportion of promastigotes in different stages of cell cycle (% ± SD) M/G2 [5]: 31.4 ± 0.5 % | Proportion of promastigotes in different stages of cell cycle (% ± SD) S [5]: 12.3 ± 0.1 % | Proportion of promastigotes in different stages of cell cycle (% ± SD) Sub G0 [5]: 10.1 ± 0.2 % | IC50 ([6]; Leishmania infantum, Peritoneal macrophage): 6.5 ± 3 µM | SI (Selectivity Index) ([6]; ratio between CC50 in NCTC cells and IC50 in intracellular amastigotes): 18.4 | CC50 [14]: 120 ± 4.2 µM | IC50 ([9]; Leishmania infantum, 96 h at 24 °C, MTT, read-out: IC50 (µM) ± SD Promastigote): 5.1 ± 0.6 µM
